Species on record: Rattus norvegicus
Assay: Open TG-GATES - Regimen: Single
Format: toxicity, organism-based, Sprague-Dawley
Parameters: regimen Single, gender Male, age 6 weeks
Conditions: in vivo, iv, route intravenous injection; for KIDNEY_L / KIDNEY_R / KIDNEY_TOTAL: tissue Kidney; for LIVER: tissue Liver; for ALP / ALT / AST / CRE / DBIL / GLC / IP / K / LDH / PL / RALB / TBIL / TC / TG / TP / gamma-GTP / BUN: tissue Plasma
[1] = 10 mg/kg, 3 h, tissue Blood, dose level Low
[2] = 10 mg/kg, 6 h, tissue Blood, dose level Low
[3] = 10 mg/kg, 9 h, tissue Blood, dose level Low
[4] = 10 mg/kg, 24 h, tissue Blood, dose level Low
[5] = 30 mg/kg, 3 h, tissue Blood, dose level Middle

Sequence: GENTAMICIN
- Lym [1]: 78.8%
- MCH [1]: 21.8 pg
- MCHC [1]: 34.1%
- MCV [1]: 64 fL
- Mono [1]: 3%
- Neu [1]: 17%
- PT [1]: 16.2 s
- Plat [1]: 121.8 x10_4/uL
- RBC [1]: 595.2 x10_4/ul
- Ret [1]: 7.2%
- WBC [1]: 114 x10_2/uL
- KIDNEY_L (10 mg/kg, 3 h, dose level Low): 0.9 g
- KIDNEY_R (10 mg/kg, 3 h, dose level Low): 1 g
- KIDNEY_TOTAL (10 mg/kg, 3 h, dose level Low): 1.9 g
- LIVER (10 mg/kg, 3 h, dose level Low): 9.7 g
- ALP (10 mg/kg, 3 h, dose level Low): 1674.8 IU/L
- ALT (10 mg/kg, 3 h, dose level Low): 40.6 IU/L
- AST (10 mg/kg, 3 h, dose level Low): 72.8 IU/L
- CRE (10 mg/kg, 3 h, dose level Low): 0.2 mg/dL
- DBIL (10 mg/kg, 3 h, dose level Low): 0.002 mg/dL
- GLC (10 mg/kg, 3 h, dose level Low): 181.2 mg/dL
- IP (10 mg/kg, 3 h, dose level Low): 7.8 mg/dL
- K (10 mg/kg, 3 h, dose level Low): 4.2 meq/L
- LDH (10 mg/kg, 3 h, dose level Low): 188 IU/L
- PL (10 mg/kg, 3 h, dose level Low): 131.8 mg/dL
- RALB (10 mg/kg, 3 h, dose level Low): 2.9 g/dL
- TBIL (10 mg/kg, 3 h, dose level Low): 0.018 mg/dL
- TC (10 mg/kg, 3 h, dose level Low): 66.6 mg/dL
- TG (10 mg/kg, 3 h, dose level Low): 91.4 mg/dL
- TP (10 mg/kg, 3 h, dose level Low): 5.3 g/dL
- gamma-GTP (10 mg/kg, 3 h, dose level Low): 1.4 IU/L
- TERMINAL_BW (10 mg/kg, 6 h, dose level Low): 207.8 g
- APTT [2]: 23.6 s
- Bas [2]: 0%
- Eos [2]: 0.8%
- Fbg [2]: 282.6 mg/dL
- Ht [2]: 39.5%
- Lym [2]: 83%
- MCH [2]: 21 pg
- Mono [2]: 2.8%
- PT [2]: 15.9 s
- Plat [2]: 131.7 x10_4/uL
- RBC [2]: 634.2 x10_4/ul
- Ret [2]: 6.8%
- WBC [2]: 102.7 x10_2/uL
- KIDNEY_L (10 mg/kg, 6 h, dose level Low): 0.9 g
- KIDNEY_R (10 mg/kg, 6 h, dose level Low): 0.9 g
- KIDNEY_TOTAL (10 mg/kg, 6 h, dose level Low): 1.8 g
- LIVER (10 mg/kg, 6 h, dose level Low): 8.7 g
- ALP (10 mg/kg, 6 h, dose level Low): 1173 IU/L
- ALT (10 mg/kg, 6 h, dose level Low): 36.4 IU/L
- AST (10 mg/kg, 6 h, dose level Low): 68.8 IU/L
- CRE (10 mg/kg, 6 h, dose level Low): 0.2 mg/dL
- DBIL (10 mg/kg, 6 h, dose level Low): 0.002 mg/dL
- GLC (10 mg/kg, 6 h, dose level Low): 175 mg/dL
- IP (10 mg/kg, 6 h, dose level Low): 9.1 mg/dL
- K (10 mg/kg, 6 h, dose level Low): 4.3 meq/L
- LDH (10 mg/kg, 6 h, dose level Low): 216.2 IU/L
- PL (10 mg/kg, 6 h, dose level Low): 139.6 mg/dL
- RALB (10 mg/kg, 6 h, dose level Low): 3 g/dL
- TBIL (10 mg/kg, 6 h, dose level Low): 0.022 mg/dL
- TC (10 mg/kg, 6 h, dose level Low): 77.6 mg/dL
- TG (10 mg/kg, 6 h, dose level Low): 74.8 mg/dL
- TP (10 mg/kg, 6 h, dose level Low): 5.4 g/dL
- gamma-GTP (10 mg/kg, 6 h, dose level Low): 1.6 IU/L
- TERMINAL_BW (10 mg/kg, 9 h, dose level Low): 208.7 g
- APTT [3]: 23.8 s
- Bas [3]: 0%
- Eos [3]: 0.8%
- Fbg [3]: 317.6 mg/dL
- Ht [3]: 39.5%
- Lym [3]: 80.6%
- MCHC [3]: 33.4%
- Mono [3]: 3.2%
- PT [3]: 16.2 s
- Plat [3]: 125.8 x10_4/uL
- RBC [3]: 642.4 x10_4/ul
- Ret [3]: 6.1%
- WBC [3]: 90.1 x10_2/uL
- KIDNEY_L (10 mg/kg, 9 h, dose level Low): 1 g
- KIDNEY_R (10 mg/kg, 9 h, dose level Low): 1 g
- KIDNEY_TOTAL (10 mg/kg, 9 h, dose level Low): 1.9 g
- LIVER (10 mg/kg, 9 h, dose level Low): 8.2 g
- ALP (10 mg/kg, 9 h, dose level Low): 1357 IU/L
- AST (10 mg/kg, 9 h, dose level Low): 66.4 IU/L
- BUN (10 mg/kg, 9 h, dose level Low): 11 mg/dL
- CRE (10 mg/kg, 9 h, dose level Low): 0.1 mg/dL
- DBIL (10 mg/kg, 9 h, dose level Low): 0.004 mg/dL
- GLC (10 mg/kg, 9 h, dose level Low): 180.6 mg/dL
- IP (10 mg/kg, 9 h, dose level Low): 8.9 mg/dL
- K (10 mg/kg, 9 h, dose level Low): 4.2 meq/L
- LDH (10 mg/kg, 9 h, dose level Low): 120.2 IU/L
- PL (10 mg/kg, 9 h, dose level Low): 128 mg/dL
- RALB (10 mg/kg, 9 h, dose level Low): 3 g/dL
- TBIL (10 mg/kg, 9 h, dose level Low): 0.026 mg/dL
- TC (10 mg/kg, 9 h, dose level Low): 69 mg/dL
- TG (10 mg/kg, 9 h, dose level Low): 56 mg/dL
- TP (10 mg/kg, 9 h, dose level Low): 5.4 g/dL
- gamma-GTP (10 mg/kg, 9 h, dose level Low): 1 IU/L
- TERMINAL_BW (10 mg/kg, 24 h, dose level Low): 226 g
- APTT [4]: 23.6 s
- Bas [4]: 0%
- Eos [4]: 0.8%
- Fbg [4]: 300.6 mg/dL
- Ht [4]: 38.7%
- Lym [4]: 80.4%
- MCHC [4]: 34%
- MCV [4]: 61.6 fL
- Mono [4]: 3.2%
- Plat [4]: 126.1 x10_4/uL
- RBC [4]: 628.8 x10_4/ul
- Ret [4]: 6.2%
- WBC [4]: 119.3 x10_2/uL
- KIDNEY_L (10 mg/kg, 24 h, dose level Low): 1 g
- KIDNEY_R (10 mg/kg, 24 h, dose level Low): 1 g
- KIDNEY_TOTAL (10 mg/kg, 24 h, dose level Low): 1.9 g
- LIVER (10 mg/kg, 24 h, dose level Low): 10.2 g
- ALP (10 mg/kg, 24 h, dose level Low): 1490.2 IU/L
- ALT (10 mg/kg, 24 h, dose level Low): 37.8 IU/L
- AST (10 mg/kg, 24 h, dose level Low): 68.2 IU/L
- BUN (10 mg/kg, 24 h, dose level Low): 16.6 mg/dL
- CRE (10 mg/kg, 24 h, dose level Low): 0.2 mg/dL
- DBIL (10 mg/kg, 24 h, dose level Low): 0 mg/dL
- IP (10 mg/kg, 24 h, dose level Low): 6.4 mg/dL
- K (10 mg/kg, 24 h, dose level Low): 4.5 meq/L
- LDH (10 mg/kg, 24 h, dose level Low): 171.6 IU/L
- PL (10 mg/kg, 24 h, dose level Low): 139.2 mg/dL
- RALB (10 mg/kg, 24 h, dose level Low): 2.9 g/dL
- TBIL (10 mg/kg, 24 h, dose level Low): 0.01 mg/dL
- TC (10 mg/kg, 24 h, dose level Low): 69.4 mg/dL
- TG (10 mg/kg, 24 h, dose level Low): 100 mg/dL
- TP (10 mg/kg, 24 h, dose level Low): 5.4 g/dL
- gamma-GTP (10 mg/kg, 24 h, dose level Low): 1.2 IU/L
- TERMINAL_BW (30 mg/kg, 3 h, dose level Middle): 214 g
- APTT [5]: 23.2 s
- Bas [5]: 0%
- Eos [5]: 1%
- Fbg [5]: 287.4 mg/dL
- Ht [5]: 39.3%
- Lym [5]: 79%
- MCHC [5]: 34%
